According to patent publication US11111238B2, “Coumarin derivatives, processes for their preparation and uses thereof for the treatment of cancer” (Lead Discovery Center GmbH, priority 2017, dated 2021):

Legend:
[1] = target: mitochondrial RNA-polymerase (POLRMT) (Mus musculus, UniProt Q8BKF1); test: Homogeneous TR-FRET assay for mitochondrial transcription activity; format: biochemical; details: homogeneous TR-FRET assay according to Example 4; activity class
Summary of the method: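 Mouse POLRMT, TFAM and TFB2M with linearized pUC-LSP template in 10 mM Tris-HCl pH 7.5, 10 mM MgCl2, 40 mM NaCl; compounds at 10 μM or serial dilution, 10 min RT preincubation. Started with 500 μM each […], 2 h RT; 407 bp RNA product detected by hybridized Eu-cryptate/ATTO647N probe TR-FRET (ex 340, em 665 nm).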

NCI-H596 (lung) = test: CellTiter GLO viability assay, NCI-H596; format: cell-based; details: Homo sapiens, 144 h, read-out: IC50 (μM) incubation time 144 h
Protocol: The CellTiter-Glo Luminescent Cell Viability Assay (Promega) is a homogeneous method of determining the number of viable cells in culture. It is based on quantification of ATP, indicating the presence of metabolically active cells.
Cells were seeded on day 1 at cell numbers that assure assay linearity and optimal signal intensity. After incubation for 3 h in humidified chambers at 37° C./5% CO2 compounds/DMSO were added at different concentrations. […] Cells treated with the compound vehicle DMSO were used as positive controls and cells treated with 10 μM Staurosporine served as negative controls. […] Thereon, mixture and assay plates were equilibrated at room temperature for 20 min. Equal volumes of the reagent-medium-mixture was added to the volume of culture medium present in each well.
The plates were mixed at ˜200 rpm for 2 minutes on an orbital shaker. The microplates were then incubated at room temperature for 10 minutes for stabilization of the luminescent signal. Following incubation the luminescence is recorded on a Victor microplate reader (Perkin Elmer) using 200 ms integration time. The data were then analyzed with Excel using the XLFIT Plugin (dose response Fit 205) for IC50-determination. As quality control the Z′-factor was calculated from 16 positive and negative control values. Only assay results showing a Z′-factor≥0.5 were used for further analysis.

[2] = test system: human DLD-1 colon carcinoma xenograft; details: mouse, in vivo
Protocol: DLD-1 colon carcinoma cells (5×10^6 cells in 100 μL of PBS/Matrigel), isolated during exponential growth phase from in vitro cell culture, were transplanted s.c. into each female BALB/c nude mouse at day 0. Mice were kept under strictly controlled and standardized barrier conditions in IVC.
Sorafenib) (Nexavar®, which is an approved multi-kinase inhibitor/cytostatic from Bayer A G, was used as a positive control. Body weight and tumor volume (TV) were monitored two to three times per week.
Mice of groups 3, 4 and 5 were treated again at the end of the study period and blood samples were taken to generate plasma 1 h prior and 1 h post treatment. In addition, tumor and tissue samples were isolated, divided into two parts and snap frozen in liquid nitrogen. Mice of groups 1-5 were sacrificed at day 39. Gross autopsy was performed from all mice.

Chain of mitochondrial RNA-polymerase (POLRMT) (Q8BKF1 42-1207): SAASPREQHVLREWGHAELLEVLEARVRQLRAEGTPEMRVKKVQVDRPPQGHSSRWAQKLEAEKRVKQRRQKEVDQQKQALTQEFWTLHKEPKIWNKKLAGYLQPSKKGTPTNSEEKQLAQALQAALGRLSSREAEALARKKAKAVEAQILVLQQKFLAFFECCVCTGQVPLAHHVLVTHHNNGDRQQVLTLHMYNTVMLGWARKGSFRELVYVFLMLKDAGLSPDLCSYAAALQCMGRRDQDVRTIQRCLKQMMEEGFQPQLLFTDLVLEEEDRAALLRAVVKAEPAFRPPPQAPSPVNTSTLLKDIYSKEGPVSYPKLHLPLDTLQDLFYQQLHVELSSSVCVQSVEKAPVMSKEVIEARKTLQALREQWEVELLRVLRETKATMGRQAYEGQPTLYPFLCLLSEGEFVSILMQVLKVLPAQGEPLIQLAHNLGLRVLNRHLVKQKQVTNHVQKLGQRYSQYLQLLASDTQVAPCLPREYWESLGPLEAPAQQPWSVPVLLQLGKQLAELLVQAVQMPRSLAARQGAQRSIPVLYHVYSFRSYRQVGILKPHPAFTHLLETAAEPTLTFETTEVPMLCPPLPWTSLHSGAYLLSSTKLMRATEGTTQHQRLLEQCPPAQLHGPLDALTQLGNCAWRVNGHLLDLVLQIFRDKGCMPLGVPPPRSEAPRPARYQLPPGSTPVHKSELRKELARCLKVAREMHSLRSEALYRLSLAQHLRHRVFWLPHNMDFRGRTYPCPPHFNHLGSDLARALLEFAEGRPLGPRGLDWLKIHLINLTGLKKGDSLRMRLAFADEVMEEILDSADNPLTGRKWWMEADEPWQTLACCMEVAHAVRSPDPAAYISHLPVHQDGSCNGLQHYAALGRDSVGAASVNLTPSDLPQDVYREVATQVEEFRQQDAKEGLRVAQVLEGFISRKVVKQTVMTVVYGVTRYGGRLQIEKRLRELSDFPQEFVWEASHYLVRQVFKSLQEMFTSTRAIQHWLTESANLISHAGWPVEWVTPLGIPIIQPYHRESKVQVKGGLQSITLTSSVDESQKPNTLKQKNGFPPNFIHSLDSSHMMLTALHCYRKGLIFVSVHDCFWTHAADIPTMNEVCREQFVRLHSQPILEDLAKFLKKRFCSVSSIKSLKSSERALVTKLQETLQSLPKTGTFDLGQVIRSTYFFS

In the case of `C[C@@H](Oc1ccc2c(-c3ccc(F)cc3Cl)cc(=O)oc2c1)C(=O)N1CCC[C@H](C(=O)O)C1` [Compound 14, (3S)-1-[(2R)-2-[4-(2-chloro-4-fluoro-phenyl)-2-oxo-chromen-7-yl]oxypropanoyl]piperidine-3-carboxylic acid], the IC50 [1] is reported as < 0.02 µM, the IC50 (NCI-H596 (lung)) is reported as 1 to 10 µM and the “Autopsy at the end” value [2] is reported as “no abnormal observations”. For the same molecule, the body weight loss [2] was “moderate body weight loss” and the signs of toxicity [2] was “no signs of toxicity were observed”.
